We go through one molecule from patent US20250064888A1, “COMPOSITIONS AND METHODS FOR TREATING CYTOKINE STORM” (SHENZHEN HIGHTIDE BIOPHARMACEUTICAL LTD., priority 2022, published 2025).

Marks after values point to notes of the source that are not given here.

This assay has as its system LPS-induced mice model. As to the kind of experiment: Survival rate in LPS-induced mice model. Type of assay: in vivo, C57BL/6J mice. The note with it: G6 positive control, 4 mg/kg/day ig; for survival rate: first dose 1 h before LPS. Here is the method: Male SPF C57BL/6J mice (6-8 weeks old with body weight about 18-20 g) used in the study were purchased from Shanghai SLAC Laboratory Animal Co., Ltd. All the care and use of animals followed 3R principles and relevant regulations.
One hundred (100) male C57BL/6J mice (18-20 g) were used for the study. After acclimated for 7 days, the inflammation mice model, which is characterized by a severe acute systemic inflammation response was established by a single tail vein injection of LPS (30 mg/kg).
The model animals were randomly divided into 7 groups: vehicle control group (G0), test group 1 (G1)˜test group 5 (G5) and positive control group (G6), of which there were 15 mice/group in G0˜G5 and 10 mice/group in G6. Day 1 was defined as the day on which tail vein injection of LPS (30 mg/kg), treatment start from the same day of the model establishment (Day 1) through Day 5 for consecutive 5 days (120 h after LPS induction). Except for the first dose on Day1 which were set at 5 min before LPS injection, 5 min after LPS injection, 1 hour before LPS injection and 1 hour after LPS injection respectively (Detailed information see the administration schedule in table 1), each groups have the same time schedules for administration (8 h after LPS injection for the second dose and bid with once in the morning, once in the evening for the following days). Vehicle and API were administered by back subcutaneous injection, DEX was administered by gavage.
Graphpad 8.0 software was used for data analysis. Log-rank (Mantel-Cox) test was used for statistical analysis of the survival rate between each treatment group and vehicle control group.

Take `C[C@@H]1C[C@H]2[C@@H]3CCC4=CC(=O)C=C[C@]4(C)[C@@]3(F)[C@@H](O)C[C@]2(C)[C@@]1(O)C(=O)CO` [DEX, Dexamethasone]: the survival rate is, setting by setting: (8 h) 100.0%; (16 h) 100.0%; (24 h) 100.0%; (48 h) 90.0%; (72 h) 90.0%; (120 h) 90.0%**. Further, the “mice died until 72 h after LPS injection” value (10 mice/group) came to 1 mouse.
